Measured values as given in patent US8822451B2, “Modulators of ATP-binding cassette transporters” (Vertex Pharmaceuticals Incorporated, priority 2005, dated 2014).

Molecular target: T1, […]F508-CFTR (Homo sapiens, UniProt P13569, DEL508-508)
T1 construct: expressed in transfected cells
Assay: Assay results of Table 3: ΔF508-CFTR modulation, membrane potential optical assay (assay format not stated)
Format: cell-based
Conditions: NIH3T3 mouse fibroblasts stably expressing […]F508-CFTR (optical assays); for Efficacy: efficacy range; for EC50: potency range
Method in brief: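 Two VIPR II FRET voltage-dye formats in ΔF508-CFTR NIH3T3 cells yield EC50 and efficacy. Potentiator mode: 27° C.-corrected cells get compound in Cl⁻-free medium, forskolin 2-10 μM after 22 s (final Cl⁻ 28 mM). Corrector mode: compound 16 h at 37° C., activation with forskolin 10 μM plus genistein 20 μM.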

T1 sequence (P13569 with tags, fused parts or gaps DEL508-508): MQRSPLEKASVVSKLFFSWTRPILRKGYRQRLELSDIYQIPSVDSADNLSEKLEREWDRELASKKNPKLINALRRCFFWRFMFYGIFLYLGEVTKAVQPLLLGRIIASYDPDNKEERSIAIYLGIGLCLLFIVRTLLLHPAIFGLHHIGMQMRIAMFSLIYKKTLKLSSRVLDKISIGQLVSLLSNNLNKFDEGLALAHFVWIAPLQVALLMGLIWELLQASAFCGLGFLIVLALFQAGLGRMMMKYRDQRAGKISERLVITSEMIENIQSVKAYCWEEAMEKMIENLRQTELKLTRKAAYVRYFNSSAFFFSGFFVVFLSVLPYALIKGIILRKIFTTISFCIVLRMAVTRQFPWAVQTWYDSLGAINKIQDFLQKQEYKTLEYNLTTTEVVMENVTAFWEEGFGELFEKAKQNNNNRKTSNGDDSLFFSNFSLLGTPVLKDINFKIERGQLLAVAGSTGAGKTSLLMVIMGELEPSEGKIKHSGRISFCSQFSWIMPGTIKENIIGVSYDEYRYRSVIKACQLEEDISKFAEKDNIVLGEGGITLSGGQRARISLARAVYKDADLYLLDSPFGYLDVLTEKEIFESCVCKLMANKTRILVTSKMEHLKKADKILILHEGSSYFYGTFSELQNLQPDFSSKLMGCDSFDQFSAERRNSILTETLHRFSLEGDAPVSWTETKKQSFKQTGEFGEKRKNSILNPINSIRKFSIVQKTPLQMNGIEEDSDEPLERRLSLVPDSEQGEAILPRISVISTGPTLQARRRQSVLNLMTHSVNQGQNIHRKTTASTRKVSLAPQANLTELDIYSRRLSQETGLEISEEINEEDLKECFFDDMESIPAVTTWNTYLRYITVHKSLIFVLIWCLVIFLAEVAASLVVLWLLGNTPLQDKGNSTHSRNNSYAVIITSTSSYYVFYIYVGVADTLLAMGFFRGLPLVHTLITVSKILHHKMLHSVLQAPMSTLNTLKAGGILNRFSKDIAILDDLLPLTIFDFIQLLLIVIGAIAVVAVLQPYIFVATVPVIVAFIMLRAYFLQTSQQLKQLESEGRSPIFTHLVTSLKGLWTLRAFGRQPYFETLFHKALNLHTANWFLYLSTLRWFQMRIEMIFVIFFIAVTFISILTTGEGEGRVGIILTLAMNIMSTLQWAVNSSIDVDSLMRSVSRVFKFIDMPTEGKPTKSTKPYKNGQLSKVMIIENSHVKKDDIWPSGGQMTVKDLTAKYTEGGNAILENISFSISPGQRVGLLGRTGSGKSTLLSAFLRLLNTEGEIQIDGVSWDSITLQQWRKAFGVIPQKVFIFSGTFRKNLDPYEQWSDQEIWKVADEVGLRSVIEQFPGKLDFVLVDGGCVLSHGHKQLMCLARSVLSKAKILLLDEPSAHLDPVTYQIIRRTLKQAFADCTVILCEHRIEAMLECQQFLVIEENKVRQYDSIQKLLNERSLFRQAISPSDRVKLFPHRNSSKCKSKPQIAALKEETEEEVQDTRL

SMILES | Efficacy | EC50 [µM]
C=C(C)CN(CC)c1nc(C(N)=O)cc(-c2ccccc2)n1 [Compound 188] | +++ (+++ corresponds to Efficacy greater than 100) | < 1
COc1ccc(-c2cc(C(N)=O)nc(NCC3CC3)n2)cc1 [Compound 189] | + (+ corresponds to Efficacy less than 50) | > 5
CCOCCN(CCOCC)c1nc(C(N)=O)cc(-c2ccccc2)n1 [Compound 190] | ++ (++ corresponds to Efficacy between 100 and 50) | < 1
COc1cccc(-c2cc(C(N)=O)nc(N)n2)c1 [Compound 191] | + (+ corresponds to Efficacy less than 50) | > 5
COc1ccccc1-c1cc(C(N)=O)nc(NCC2CCCO2)n1 (stereo not shown) [Compound 193] | +++ (+++ corresponds to Efficacy greater than 100) | 1 to 5
CCOc1cccc(-c2cc(C(N)=O)nc(N3CCCCC3)n2)c1 [Compound 194] | +++ (+++ corresponds to Efficacy greater than 100) | 1 to 5
COc1ccc(S(=O)(=O)N2CCN(c3nc(C(N)=O)cc(-c4ccccc4)n3)CC2)cc1 [Compound 195] | ++ (++ corresponds to Efficacy between 100 and 50) | > 5
CC(C)CN(CC(C)C)c1nc(C(N)=O)cc(-c2ccccc2)n1 [Compound 196] | + (+ corresponds to Efficacy less than 50) | 1 to 5
CCCN(CC1CC1)c1nc(C(N)=O)cc(-c2ccc(OC)cc2)n1 [Compound 197] | ++ (++ corresponds to Efficacy between 100 and 50) | 1 to 5
CCOc1ccc(-c2cc(C(N)=O)nc(N3CCCCC3)n2)cc1 [Compound 198] | + (+ corresponds to Efficacy less than 50) | 1 to 5
NC(=O)c1cc(-c2cc(Cl)cc(Cl)c2)nc(N2CCCCC2)n1 [Compound 199] | ++ (++ corresponds to Efficacy between 100 and 50) | 1 to 5
CCN(CC)c1nc(C(N)=O)cc(-c2ccc(Cl)cc2Cl)n1 [Compound 200] | ++ (++ corresponds to Efficacy between 100 and 50) | < 1
CCCCCCN(C)c1nc(C(N)=O)cc(-c2ccccc2)n1 [Compound 201] | +++ (+++ corresponds to Efficacy greater than 100) | 1 to 5
NC(=O)c1cc(-c2cc(Cl)ccc2Cl)nc(N2CCCCC2)n1 [Compound 202] | ++ (++ corresponds to Efficacy between 100 and 50) | 1 to 5
COc1cccc(-c2cc(C(N)=O)nc(NCC3CC3)n2)c1 [Compound 203] | +++ (+++ corresponds to Efficacy greater than 100) | > 5
C#CCN(C)c1nc(C(N)=O)cc(-c2ccccc2)n1 [Compound 204] | ++ (++ corresponds to Efficacy between 100 and 50) | 1 to 5
COc1ccccc1-c1cc(C(N)=O)nc(N2CCCCC2)n1 [Compound 205] | ++ (++ corresponds to Efficacy between 100 and 50) | > 5
CC(C)CCN(C)c1nc(C(N)=O)cc(-c2ccccc2)n1 [Compound 206] | ++ (++ corresponds to Efficacy between 100 and 50) | 1 to 5
CCN(CC)c1nc(C(N)=O)cc(-c2ccc(C)c(C)c2)n1 [Compound 207] | +++ (+++ corresponds to Efficacy greater than 100) | 1 to 5
COc1ccccc1-c1cc(C(N)=O)nc(N(C)C)n1 [Compound 208] | + (+ corresponds to Efficacy less than 50) | > 5
CCOC(=O)CN(C)c1nc(C(N)=O)cc(-c2ccccc2)n1 [Compound 209] | ++ (++ corresponds to Efficacy between 100 and 50) | 1 to 5
CCN(CC)c1nc(C(N)=O)cc(-c2cccc(Cl)c2Cl)n1 [Compound 210] | ++ (++ corresponds to Efficacy between 100 and 50) | < 1

SMILES | Efficacy | EC50 [µM]
COc1cccc(-c2cc(C(N)=O)nc(N3CCOCC3)n2)c1 [Compound 211] | ++ (++ corresponds to Efficacy between 100 and 50) | > 5
CCOc1cccc(-c2cc(C(N)=O)nc(N(CC)CC)n2)c1 [Compound 212] | +++ (+++ corresponds to Efficacy greater than 100) | < 1
NC(=O)c1cc(-c2cccc(OC(F)(F)F)c2)nc(N2CCCCC2)n1 [Compound 213] | + (+ corresponds to Efficacy less than 50) | 1 to 5
CCN(CC)c1nc(C(N)=O)cc(-c2csc3ccccc23)n1 [Compound 214] | ++ (++ corresponds to Efficacy between 100 and 50) | < 1
CCNc1nc(C(N)=O)cc(-c2ccccc2)n1 [Compound 215] | ++ (++ corresponds to Efficacy between 100 and 50) | > 5
NC(=O)c1cc(-c2ccccc2)nc(NCc2ccco2)n1 [Compound 216] | ++ (++ corresponds to Efficacy between 100 and 50) | > 5
CCN(CC)c1nc(C(N)=O)cc(-c2cc(OC)ccc2OC)n1 [Compound 217] | ++ (++ corresponds to Efficacy between 100 and 50) | < 1
CCN(CCc1ccccn1)c1nc(C(N)=O)cc(-c2ccccc2)n1 [Compound 218] | +++ (+++ corresponds to Efficacy greater than 100) | 1 to 5
NC(=O)c1cc(-c2cc(F)cc(F)c2)nc(N2CCCCC2)n1 [Compound 219] | + (+ corresponds to Efficacy less than 50) | 1 to 5
C=CCNc1nc(C(N)=O)cc(-c2ccc(OC)cc2)n1 [Compound 220] | + (+ corresponds to Efficacy less than 50) | > 5
Cc1ccc(-c2cc(C(N)=O)nc(N3CCCCC3)n2)cc1 [Compound 221] | + (+ corresponds to Efficacy less than 50) | 1 to 5
CN(C)C(=O)c1cc(-c2ccccc2)nc(N2CCCCC2)n1 [Compound 222] | ++ (++ corresponds to Efficacy between 100 and 50) | > 5
CCN(CC)c1nc(C(N)=O)cc(-c2ccc(C(=O)OC)cc2)n1 [Compound 223] | +++ (+++ corresponds to Efficacy greater than 100) | 1 to 5
COc1ccc(C(C)C)cc1-c1cc(C(N)=O)nc(N2CCCCC2)n1 [Compound 224] | + (+ corresponds to Efficacy less than 50) | > 5
CCN(CC)c1nc(C(N)=O)cc(-c2cc(Cl)ccc2Cl)n1 [Compound 225] | +++ (+++ corresponds to Efficacy greater than 100) | < 1
CCN(CC)c1nc(C(N)=O)cc(-c2cc(Cl)cc(Cl)c2)n1 [Compound 226] | ++ (++ corresponds to Efficacy between 100 and 50) | 1 to 5
NC(=O)c1cc(-c2ccc3c(c2)OCO3)nc(N2CCCCC2)n1 [Compound 227] | ++ (++ corresponds to Efficacy between 100 and 50) | > 5
CCN(CCO)c1nc(C(N)=O)cc(-c2ccccc2OC)n1 [Compound 228] | ++ (++ corresponds to Efficacy between 100 and 50) | > 5
CCN(CC)c1nc(C(N)=O)cc(-c2ccc(OC)nc2)n1 [Compound 229] | ++ (++ corresponds to Efficacy between 100 and 50) | 1 to 5
CCN(CC)c1nc(C(N)=O)cc(-c2ccc(C)cc2)n1 [Compound 230] | +++ (+++ corresponds to Efficacy greater than 100) | 1 to 5
CNc1nc(C(N)=O)cc(-c2cccc(OC)c2)n1 [Compound 231] | ++ (++ corresponds to Efficacy between 100 and 50) | > 5
CNC(=O)c1cc(-c2ccccc2)nc(N2CCCCC2)n1 [Compound 232] | + (+ corresponds to Efficacy less than 50) | 1 to 5
